# Measurements as given in ChEMBL document CHEMBL1201862, “PubChem BioAssay data set” (2004).
#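 Test compounds were applied to cells in 96-well plates for 48 hours at 5 doses. GI50: concentration for 50% inhibition of growth.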 Active and inactive are the calls of the source. No stated cut-off is given here; in the data, active = GI50 up to about 1.1 µM and inactive = higher.
# How the values were obtained:
# Test in all cases: NCI tumour cell line growth inhibition, 48 h
# SF-295 = tested on: SF-295
# PC-3 = tested on: PC-3
# ACHN = tested on: ACHN
# DU-145 = tested on: DU-145
# MDA-MB-435 = tested on: MDA-MB-435
# A549 = tested on: A549
# NCI-H460 = tested on: NCI-H460
# IGROV-1 = tested on: IGROV-1
# NCI-H226 = tested on: NCI-H226
# OVCAR-4 = tested on: OVCAR-4
# CAKI-1 = tested on: CAKI-1
# RXF 393 = tested on: RXF 393
# UACC-257 = tested on: UACC-257
# SK-MEL-28 = tested on: SK-MEL-28
# MDA-N = tested on: MDA-N
# HOP-92 = tested on: HOP-92
# 786-0 = tested on: 786-0
# OVCAR-3 = tested on: OVCAR-3
# SW-620 = tested on: SW-620
# EKVX = tested on: EKVX
# NCI/ADR-RES = tested on: NCI/ADR-RES
# U-251 = tested on: U-251
# MCF7 = tested on: MCF7
# OVCAR-5 = tested on: OVCAR-5
# MOLT-4 = tested on: MOLT-4
# HCT-15 = tested on: HCT-15
# COLO 205 = tested on: COLO 205
# Malme-3M = tested on: Malme-3M
# Hs-578T = tested on: Hs-578T
# SF-268 = tested on: SF-268
# OVCAR-8 = tested on: OVCAR-8
# SK-OV-3 = tested on: SK-OV-3
# SK-MEL-2 = tested on: SK-MEL-2
# T47D = tested on: T47D
# SK-MEL-5 = tested on: SK-MEL-5
# SF-539 = tested on: SF-539
# TK-10 = tested on: TK-10
# SR = tested on: SR
# BT-549 = tested on: BT-549
# HOP-62 = tested on: HOP-62
# LOX IMVI = tested on: LOX IMVI
# K562 = tested on: K562
# MDA-MB-231 = tested on: MDA-MB-231
# SNB-19 = tested on: SNB-19
# HCT-116 = tested on: HCT-116
# SN12C = tested on: SN12C
# NCI-H23 = tested on: NCI-H23
# A498 = tested on: A498
# HT-29 = tested on: HT-29
# KM12 = tested on: KM12
# M14 = tested on: M14
# CCRF-CEM = tested on: CCRF-CEM
# UO-31 = tested on: UO-31
# HCC 2998 = tested on: HCC 2998
# HL-60 = tested on: HL-60
# RPMI-8226 = tested on: RPMI-8226
# SNB-75 = tested on: SNB-75
# UACC-62 = tested on: UACC-62
# NCI-H522 = tested on: NCI-H522
compound,measurement,setting,value
C=CC(=O)N1C/C(=C\c2ccc(OC)cc2)C(=O)/C(=C/c2ccc(OC)cc2)C1,GI50,SF-295,2.39 µM (inactive)
same,GI50,PC-3,1.83 µM (inactive)
same,GI50,ACHN,1.78 µM (inactive)
same,GI50,DU-145,3.91 µM (inactive)
same,GI50,MDA-MB-435,2.06 µM (inactive)
same,GI50,A549,2.47 µM (inactive)
same,GI50,NCI-H460,1.9 µM (inactive)
same,GI50,IGROV-1,2.35 µM (inactive)
same,GI50,NCI-H226,2 µM (inactive)
same,GI50,OVCAR-4,2.36 µM (inactive)
same,GI50,CAKI-1,3.22 µM (inactive)
same,GI50,RXF 393,1.61 µM (inactive)
same,GI50,UACC-257,3.64 µM (inactive)
same,GI50,SK-MEL-28,2.81 µM (inactive)
same,GI50,MDA-N,1.62 µM (inactive)
same,GI50,HOP-92,6.03 µM (inactive)
same,GI50,786-0,1.74 µM (inactive)
same,GI50,OVCAR-3,1.97 µM (inactive)
same,GI50,SW-620,1.46 µM (inactive)
same,GI50,EKVX,3.35 µM (inactive)
same,GI50,NCI/ADR-RES,3.12 µM (inactive)
same,GI50,U-251,1.97 µM (inactive)
same,GI50,MCF7,0.628 µM (active)
same,GI50,OVCAR-5,4.9 µM (inactive)
same,GI50,MOLT-4,1.76 µM (inactive)
same,GI50,HCT-15,1.56 µM
same,GI50,COLO 205,2.99 µM (inactive)
same,GI50,Malme-3M,2.19 µM (inactive)
same,GI50,Hs-578T,3.34 µM (inactive)
same,GI50,SF-268,3.51 µM (inactive)
same,GI50,OVCAR-8,2.88 µM (inactive)
same,GI50,SK-OV-3,3.48 µM (inactive)
same,GI50,SK-MEL-2,2.68 µM (inactive)
same,GI50,T47D,6.56 µM (inactive)
same,GI50,SK-MEL-5,2.61 µM (inactive)
same,GI50,SF-539,1.71 µM (inactive)
same,GI50,TK-10,3.66 µM (inactive)
same,GI50,SR,0.67 µM (active)
same,GI50,BT-549,1.71 µM (inactive)
same,GI50,HOP-62,2.55 µM (inactive)
same,GI50,LOX IMVI,0.986 µM (active)
same,GI50,K562,2.86 µM (inactive)
same,GI50,MDA-MB-231,3.07 µM (inactive)
same,GI50,SNB-19,7.18 µM (inactive)
same,GI50,HCT-116,0.219 µM (active)
same,GI50,SN12C,2.49 µM (inactive)
same,GI50,NCI-H23,2.01 µM (inactive)
same,GI50,A498,1.73 µM (inactive)
same,GI50,HT-29,0.78 µM (active)
same,GI50,KM12,1.93 µM (inactive)
same,GI50,M14,2.15 µM (inactive)
same,GI50,CCRF-CEM,1.78 µM (inactive)
same,GI50,UO-31,1.77 µM (inactive)
same,GI50,HCC 2998,1.5 µM (inactive)
same,GI50,HL-60,0.69 µM (active)
same,GI50,RPMI-8226,0.247 µM (active)
same,GI50,SNB-75,6.05 µM (inactive)
same,GI50,UACC-62,1.94 µM (inactive)
Cc1cc(CN2CCCCC2)c(O)c(CN2CCCCC2)c1,GI50,SF-295,> 100 µM (inactive)
same,GI50,PC-3,> 100 µM (inactive)
same,GI50,ACHN,> 100 µM (inactive)
same,GI50,DU-145,> 100 µM (inactive)
same,GI50,MDA-MB-435,> 100 µM (inactive)
same,GI50,A549,> 100 µM (inactive)
same,GI50,NCI-H460,> 100 µM (inactive)
same,GI50,IGROV-1,> 100 µM (inactive)
same,GI50,NCI-H226,> 100 µM (inactive)
same,GI50,OVCAR-4,> 100 µM (inactive)
same,GI50,CAKI-1,> 100 µM (inactive)
same,GI50,RXF 393,> 100 µM (inactive)
same,GI50,UACC-257,> 100 µM (inactive)
same,GI50,SK-MEL-28,> 100 µM (inactive)
same,GI50,MDA-N,> 100 µM (inactive)
same,GI50,HOP-92,> 100 µM (inactive)
same,GI50,786-0,> 100 µM (inactive)
same,GI50,OVCAR-3,> 100 µM (inactive)
same,GI50,SW-620,> 100 µM (inactive)
same,GI50,EKVX,> 100 µM (inactive)
same,GI50,NCI/ADR-RES,> 100 µM (inactive)
same,GI50,U-251,> 100 µM (inactive)
same,GI50,MCF7,> 100 µM (inactive)
same,GI50,OVCAR-5,> 100 µM (inactive)
same,GI50,HCT-15,> 100 µM
same,GI50,COLO 205,> 100 µM (inactive)
same,GI50,Malme-3M,> 100 µM (inactive)
same,GI50,Hs-578T,> 100 µM (inactive)
same,GI50,SF-268,> 100 µM (inactive)
same,GI50,OVCAR-8,> 100 µM (inactive)
same,GI50,SK-OV-3,> 100 µM (inactive)
same,GI50,SK-MEL-2,> 100 µM (inactive)
same,GI50,T47D,> 100 µM (inactive)
same,GI50,SK-MEL-5,> 100 µM (inactive)
same,GI50,TK-10,> 100 µM (inactive)
same,GI50,SR,> 100 µM (inactive)
same,GI50,BT-549,> 100 µM (inactive)
same,GI50,HOP-62,> 100 µM (inactive)
same,GI50,LOX IMVI,> 100 µM (inactive)
same,GI50,K562,> 100 µM (inactive)
same,GI50,MDA-MB-231,> 100 µM (inactive)
same,GI50,SNB-19,> 100 µM (inactive)
same,GI50,HCT-116,> 100 µM (inactive)
same,GI50,SN12C,> 100 µM (inactive)
same,GI50,NCI-H23,> 100 µM (inactive)
same,GI50,A498,> 100 µM (inactive)
same,GI50,HT-29,> 100 µM (inactive)
same,GI50,KM12,> 100 µM (inactive)
same,GI50,M14,> 100 µM (inactive)
same,GI50,CCRF-CEM,41.3 µM (inactive)
same,GI50,UO-31,> 100 µM (inactive)
same,GI50,HCC 2998,> 100 µM (inactive)
same,GI50,HL-60,> 100 µM (inactive)
same,GI50,RPMI-8226,22.8 µM (inactive)
same,GI50,SNB-75,> 100 µM (inactive)
same,GI50,UACC-62,> 100 µM (inactive)
same,GI50,NCI-H522,> 100 µM (inactive)
O=[N+]([O-])c1ccc(/C=C\c2ccc3c(c2)OCO3)c([N+](=O)[O-])c1,GI50,SF-295,23 µM (inactive)
same,GI50,PC-3,24.8 µM (inactive)
same,GI50,ACHN,16.6 µM (inactive)
same,GI50,DU-145,18.3 µM (inactive)
same,GI50,MDA-MB-435,8.43 µM (inactive)
same,GI50,A549,20.1 µM (inactive)
same,GI50,NCI-H460,19.5 µM (inactive)
same,GI50,IGROV-1,12.2 µM (inactive)
same,GI50,CAKI-1,25 µM (inactive)
same,GI50,RXF 393,0.0316 µM (active)
same,GI50,UACC-257,17.3 µM (inactive)
same,GI50,SK-MEL-28,17.1 µM (inactive)
same,GI50,MDA-N,5.52 µM (inactive)
same,GI50,HOP-92,21.2 µM (inactive)
same,GI50,786-0,16.9 µM (inactive)
same,GI50,OVCAR-3,18.2 µM (inactive)
same,GI50,SW-620,17.1 µM (inactive)
same,GI50,EKVX,13 µM (inactive)
same,GI50,NCI/ADR-RES,29.2 µM (inactive)
same,GI50,U-251,14.2 µM (inactive)
same,GI50,MCF7,1.86 µM (inactive)
same,GI50,OVCAR-5,18.7 µM (inactive)
same,GI50,MOLT-4,17.5 µM (inactive)
same,GI50,HCT-15,14.6 µM
same,GI50,COLO 205,18.4 µM (inactive)
same,GI50,Malme-3M,19.7 µM (inactive)
same,GI50,Hs-578T,16.8 µM (inactive)
same,GI50,SF-268,23 µM (inactive)
same,GI50,OVCAR-8,19 µM (inactive)
same,GI50,SK-OV-3,18.7 µM (inactive)
same,GI50,SK-MEL-2,18.3 µM (inactive)
same,GI50,T47D,44.1 µM (inactive)
same,GI50,SK-MEL-5,19 µM (inactive)
same,GI50,SF-539,20 µM (inactive)
same,GI50,TK-10,17.3 µM (inactive)
same,GI50,SR,8 µM (inactive)
same,GI50,BT-549,16.4 µM (inactive)
same,GI50,HOP-62,25.1 µM (inactive)
same,GI50,LOX IMVI,13.4 µM (inactive)
same,GI50,K562,21.3 µM (inactive)
same,GI50,MDA-MB-231,17.2 µM (inactive)
same,GI50,SNB-19,17.3 µM (inactive)
same,GI50,HCT-116,5.53 µM (inactive)
same,GI50,SN12C,17.5 µM (inactive)
same,GI50,NCI-H23,21.7 µM (inactive)
same,GI50,A498,19 µM (inactive)
same,GI50,HT-29,19.9 µM (inactive)
same,GI50,KM12,15.3 µM (inactive)
same,GI50,M14,15.3 µM (inactive)
same,GI50,CCRF-CEM,18.2 µM (inactive)
same,GI50,UO-31,19.9 µM (inactive)
same,GI50,HCC 2998,14.5 µM (inactive)
same,GI50,HL-60,17.4 µM (inactive)
same,GI50,RPMI-8226,4.39 µM (inactive)
same,GI50,SNB-75,17.7 µM (inactive)
same,GI50,UACC-62,18.7 µM (inactive)
same,GI50,NCI-H522,12.7 µM (inactive)
